Measurements from patent US20240174639A1, “PYRIDINE DERIVATIVES USEFUL AS HCN2 MODULATORS” (King's College London, priority 2021, published 2024).
Counter-ions that a name gives are not always drawn.

Assays:
Black6 strain mice = assay: Bradycardia testing, heart rate by MouseOx pulse oximeter (Example 58); assay type: in vivo; conditions: awake Black6 mice
Method: Test compounds were administered i.p. to awake, behaving, Black6 strain mice together with a vehicle only control arm. Heart rate in the mice were measured with MouseOx pulse oximeter.
The compound of Example 2 was administered to awake, behaving, Black6 strain mice at doses ranging from 0.05 mg/kg to 2 mg/kg. The effect of the compound of Example 2 on heart beat is shown in FIG. 11 compared to ivabradine administered at a dose of 5 mg/kg i.p, and a vehicle control.

WT Black6 strain mice = assay: Mouse neuropathic pain model (partial sciatic nerve ligation), von Frey filament (Example 57); assay type: in vivo; conditions: day 5 after PSNL
Method: The compounds of Example 2 and Example 4 were tested in a mouse neuropathic pain model using WT Black6 strain mice. The model used was analogous to the model described in Seltzer Z, Dubner R, & Shir Y (1990), A novel behavioural model of neuropathic pain disorders produced in rats by partial sciatic nerve injury, Pain 43: 205-218). […] Sci Transl Med 9: eaam6072.
The test compounds were administered i.p. to the mice on day 5 following partial sciatic nerve ligation surgery, average data from 3-4 mice. The mechanical pain threshold was measured by manual von Frey filament applied to hind paw on the operated side, using the “up-down” method. The test compounds were compared to ivabradine at 5 mg/kg i.p. and i.p. injection of vehicle.

HCN4 = biological target: T1, HCN4 (Homo sapiens, UniProt Q9Y3Q4); assay: HCN4 assay using PatchXpress 7000A (Example 50A); assay type: cell-based; conditions: PatchXpress protocol (PX)
T1 sequence (Q9Y3Q4 1-1203): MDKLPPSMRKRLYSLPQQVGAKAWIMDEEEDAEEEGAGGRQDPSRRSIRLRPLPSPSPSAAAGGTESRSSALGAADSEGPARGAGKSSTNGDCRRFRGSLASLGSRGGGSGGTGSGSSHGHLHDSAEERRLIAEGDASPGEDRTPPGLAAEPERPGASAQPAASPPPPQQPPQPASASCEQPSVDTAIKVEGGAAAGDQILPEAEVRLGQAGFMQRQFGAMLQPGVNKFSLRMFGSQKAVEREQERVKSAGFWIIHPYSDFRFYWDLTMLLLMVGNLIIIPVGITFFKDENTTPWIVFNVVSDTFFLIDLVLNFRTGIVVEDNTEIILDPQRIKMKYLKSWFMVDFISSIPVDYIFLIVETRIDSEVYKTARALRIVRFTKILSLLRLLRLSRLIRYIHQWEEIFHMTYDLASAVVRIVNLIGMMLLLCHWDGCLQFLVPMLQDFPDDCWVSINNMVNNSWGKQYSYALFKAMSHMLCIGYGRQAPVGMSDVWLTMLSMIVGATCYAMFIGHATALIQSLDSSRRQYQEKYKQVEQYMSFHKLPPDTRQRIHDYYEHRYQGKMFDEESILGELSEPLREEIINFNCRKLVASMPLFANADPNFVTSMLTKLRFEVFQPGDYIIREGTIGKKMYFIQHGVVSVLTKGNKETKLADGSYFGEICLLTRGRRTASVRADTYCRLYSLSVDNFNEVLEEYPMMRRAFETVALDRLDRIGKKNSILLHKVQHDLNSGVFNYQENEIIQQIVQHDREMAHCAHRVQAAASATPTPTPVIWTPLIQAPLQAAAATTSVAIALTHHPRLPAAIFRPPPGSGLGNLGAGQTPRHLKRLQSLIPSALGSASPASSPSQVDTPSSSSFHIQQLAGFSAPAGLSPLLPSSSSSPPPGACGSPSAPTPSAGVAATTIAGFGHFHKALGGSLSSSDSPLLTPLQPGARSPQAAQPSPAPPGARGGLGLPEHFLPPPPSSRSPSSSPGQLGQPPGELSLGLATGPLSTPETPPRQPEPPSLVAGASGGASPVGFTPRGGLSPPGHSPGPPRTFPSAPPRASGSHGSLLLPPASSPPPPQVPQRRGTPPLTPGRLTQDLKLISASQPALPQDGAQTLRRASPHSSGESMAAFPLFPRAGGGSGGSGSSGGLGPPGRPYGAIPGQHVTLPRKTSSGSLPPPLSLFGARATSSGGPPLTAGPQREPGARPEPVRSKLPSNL
Method: (§1) Solutions for recording HON currents were:
For HCN4, the pulse protocol involved stepping from a holding potential of −30 mV to −130 mV (see FIG. 1B) for 4 seconds to evoke the current.
(§2) The peak inward current measured at the end of the pulse to −110 mV (HCN1 and HCN2) or −130 mV (HCN4) was measured and any leak current subtracted to calculate the HCN current. The HCN current amplitude was measured after each control or compound addition and normalized to the control amplitude (Control A).
(§3) All experiments were performed at room temperature (approximately 22° C.).
(§4) Each test compound concentration was applied to the cell for seven (7) minutes, at which point the next cumulative concentration was applied. 3 mM CsCl was applied to each cell for 2 minutes at the end of each experiment (Control B) to determine 100% inhibition level of the HCN current.

HCN2 = biological target: T2, HCN2 (Homo sapiens, UniProt Q9UL51); assay: HCN2 assay using PatchXpress 7000A (Example 50A); assay type: cell-based; conditions: for IC50: PatchXpress protocol (PX); for selective for HCN2 over HCN4: PatchXpress protocol (PX) assay
T2 sequence (Q9UL51 1-889): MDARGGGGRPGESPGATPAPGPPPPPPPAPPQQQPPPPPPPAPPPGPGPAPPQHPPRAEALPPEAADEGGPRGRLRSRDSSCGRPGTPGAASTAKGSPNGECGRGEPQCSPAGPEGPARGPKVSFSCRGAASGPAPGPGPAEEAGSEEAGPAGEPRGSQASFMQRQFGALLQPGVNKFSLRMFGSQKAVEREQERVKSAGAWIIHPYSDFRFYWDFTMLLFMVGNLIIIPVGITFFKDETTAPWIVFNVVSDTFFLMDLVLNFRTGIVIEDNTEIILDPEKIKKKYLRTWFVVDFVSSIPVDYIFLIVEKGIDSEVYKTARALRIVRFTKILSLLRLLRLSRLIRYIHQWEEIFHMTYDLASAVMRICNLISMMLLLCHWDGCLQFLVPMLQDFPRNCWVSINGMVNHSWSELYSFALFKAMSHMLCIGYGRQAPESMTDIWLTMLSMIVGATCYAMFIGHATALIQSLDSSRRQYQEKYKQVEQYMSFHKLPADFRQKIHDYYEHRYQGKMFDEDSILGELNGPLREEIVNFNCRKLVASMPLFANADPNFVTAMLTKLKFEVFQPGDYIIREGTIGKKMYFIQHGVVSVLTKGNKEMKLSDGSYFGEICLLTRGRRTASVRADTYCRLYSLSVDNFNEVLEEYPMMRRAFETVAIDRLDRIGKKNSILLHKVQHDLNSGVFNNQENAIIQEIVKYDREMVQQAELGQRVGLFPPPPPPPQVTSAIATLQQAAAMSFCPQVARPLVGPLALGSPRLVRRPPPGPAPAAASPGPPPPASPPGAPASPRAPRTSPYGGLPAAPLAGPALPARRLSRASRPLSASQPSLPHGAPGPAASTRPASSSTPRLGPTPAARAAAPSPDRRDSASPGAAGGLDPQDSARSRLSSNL
Excerpt: as §1
For HCN1 and HCN2, the pulse protocol involved stepping from a holding potential of −30 mV to −110 mV (see FIG. 1A) for 2 seconds to evoke the current. The membrane voltage was then stepped back to −30 mV for a further 8 seconds. This sequence was evoked repeatedly every 10 seconds throughout the experiment, starting prior to drug (Control A) and during cumulative additions of 5 increasing compound concentrations, then finally a 100% inhibiting concentration of cesium chloride (CsCl, 3 mM).
as §2, §3, §4

adult mice = assay type: in vivo; conditions: tone pulses 3 kHz to 42 kHz
Black6 mice = conditions: mouse, in vivo, ip; cited from earlier work
[1] = Evaluation of CNS penetration: plasma, brain and auditory nerve levels (Example 55); assay type: in vivo; conditions: other: injection, guinea pig, 30 min after injection, preliminary, n=2
Method: Ivabradine in guinea pig plasma, brain (somatosensory cortex) and auditory nerve were assayed at 30 min after injection, the time used in Example 130. Ratios of total concentrations in preliminary experiments for plasma:brain:auditory nerve were 1:0.12:0.57 (n=2). The small amount (12% of plasma level) detected in brain is largely accounted for by the presence of ivabradine within the vascular supply of the brain. As in other species, therefore, ivabradine is strongly excluded from guinea pig brain because of its hydrophilicity and Pgp substrate activity; see Young, G. T., Emery, E. C., Mooney, […]. […] Pain 155, 1708-1719, (2014).

guinea pigs [2] = assay: Tinnitus, short-term salicylate model, GPIAS test (Example 54); assay type: in vivo; conditions: salicylate 350 mg/kg i.p., 2 h, ivabradine 5 mg/kg s.c.
Excerpt: (§5) Tinnitus in guinea pigs was monitored using the gap induced inhibition of the acoustic startle (GPIAS) test (see FIG. 5). GPIAS is reduced when tinnitus was present; see Berger, J. I. et al. Effects of the cannabinoid CB1 agonist ACEA on salicylate ototoxicity, hyperacusis and tinnitus in guinea pigs. Hearing research, (2017), and Coomber, B. et al. Neural changes accompanying tinnitus following unilateral acoustic trauma in the guinea pig. Eur J Neurosci 40, 2427-2441, (2014).
(§6) In FIG. 5, sound stimulus (above) and corresponding pinna reflex (below) are shown in freely moving guinea pigs. Stimuli with no gap and gap are presented in a randomised order. Traces contaminated by movement (the upper trace in “no gap”) were removed before analysis.
Tinnitus was induced within 1-2 hours in humans by high doses of salicylate. A similar short-term tinnitus model was implemented in guinea pigs by i.p. injection of salicylate. In all animals, salicylate caused behavioural inhibition of GPIAS (see bar 2 in FIG. 6).
Salicylate (350 mg/kg, i.p.) impairs behavioural gap detection 2 h after salicylate administration (see bar 2 in of FIG. 6). Gap detection was restored by blocking HCN channels with ivabradine (5 mg/kg, s.c.).

guinea pigs [3] = assay: Tinnitus, noise-exposure model, GPIAS test (Example 54); assay type: in vivo
Excerpt: as §5, §6
The noise-exposure model is more clinically relevant than the salicylate model, as it parallels a common cause of tinnitus in humans. A second important point is that it is long-term, while tinnitus induced by salicylate is rapidly reversed following salicylate exposure.
GPIAS returns following drug wash-out (see bar D in FIG. 7).

SMILES | bradycardia (heart rate) (Black6 strain mice; 0.2 mg/kg i.p.) | mechanical analgesia (von Frey pain threshold) (WT Black6 strain mice; 0.2 mg/kg i.p.) | IC50 (HCN4) [nM] | IC50 (HCN2) [nM] | selective for HCN2 over HCN4 (HCN2) | bradycardia (heart rate) (Black6 strain mice; 2 mg/kg i.p.) | mechanical analgesia (von Frey pain threshold) (WT Black6 strain mice; 2 mg/kg i.p.) | mechanical analgesia (von Frey pain threshold) (WT Black6 strain mice; 10 mg/kg i.p.) | effect on ABR threshold or latency (adult mice) | therapeutic window between analgesia and bradycardia (Black6 mice) | Kp at 30 min ([1]; auditory nerve / plasma, read-out: ratio of total concentrations auditory nerve:plasma) | Kp at 0.5 h ([1]; brain (somatosensory cortex) / plasma, somatosensory cortex, read-out: ratio of total concentrations brain:plasma) | effect on GPIAS (behavioural gap detection) (guinea pigs [2]) | effect on reduced GPIAS following noise exposure (guinea pigs [3]; guinea pigs with impaired GPIAS after unilateral noise exposure, 5 mg/kg s.c.) | effect on GPIAS in control experiments (guinea pigs [3]; noise-exposed guinea pigs showing no behavioural evidence of tinnitus, n=3)
Cc1ccc(C#N)nc1C[C@H](N)c1ncccc1-n1ncc2ccccc21 [Example 2, (S)-6-{2-[3-(1H-indazol-1-yl)pyridine-2-yl]-2-aminoethyl}-5-methylpyridin-2-carbonitrile hydrochloride] | minimal bradycardia | full analgesia | 500 | 30 | 21 times | – | – | – | – | – | – | – | – | – | –
N[C@@H](Cc1ccccn1)c1ncccc1-n1ncc2ccccc21 [Example 4, (S)-1-[3-(1H-indazole-1-yl)pyridine-2-yl]-2-(pyridine-2-yl)ethan-1-amine hydrochloride] | – | – | > 30000 | 1600 | more than 19 times | minimal bradycardia | maximal analgesia | maximal analgesia | – | – | – | – | – | – | –
COc1cc2c(cc1OC)CC(=O)N(CCCN(C)C[C@H]1Cc3cc(OC)c(OC)cc31)CC2 [ivabradine] | – | – | – | – | – | – | – | – | no significant difference | little therapeutic window | 0.57 | 0.12 | reversed GPIAS | rapidly and completely reversed | without effect on GPIAS
